According to US20050143430A1, “Catechol bioisosteres” (priority 2002, published 2005):

Target: Insulin-like Growth Factor 1 Receptor (IGF-1R) (Homo sapiens, UniProt P08069)
Assay: IGF-1R inhibition in vitro
Assay type: biochemical

Insulin-like Growth Factor 1 Receptor (IGF-1R), sequence (P08069 31-1367, species assumed): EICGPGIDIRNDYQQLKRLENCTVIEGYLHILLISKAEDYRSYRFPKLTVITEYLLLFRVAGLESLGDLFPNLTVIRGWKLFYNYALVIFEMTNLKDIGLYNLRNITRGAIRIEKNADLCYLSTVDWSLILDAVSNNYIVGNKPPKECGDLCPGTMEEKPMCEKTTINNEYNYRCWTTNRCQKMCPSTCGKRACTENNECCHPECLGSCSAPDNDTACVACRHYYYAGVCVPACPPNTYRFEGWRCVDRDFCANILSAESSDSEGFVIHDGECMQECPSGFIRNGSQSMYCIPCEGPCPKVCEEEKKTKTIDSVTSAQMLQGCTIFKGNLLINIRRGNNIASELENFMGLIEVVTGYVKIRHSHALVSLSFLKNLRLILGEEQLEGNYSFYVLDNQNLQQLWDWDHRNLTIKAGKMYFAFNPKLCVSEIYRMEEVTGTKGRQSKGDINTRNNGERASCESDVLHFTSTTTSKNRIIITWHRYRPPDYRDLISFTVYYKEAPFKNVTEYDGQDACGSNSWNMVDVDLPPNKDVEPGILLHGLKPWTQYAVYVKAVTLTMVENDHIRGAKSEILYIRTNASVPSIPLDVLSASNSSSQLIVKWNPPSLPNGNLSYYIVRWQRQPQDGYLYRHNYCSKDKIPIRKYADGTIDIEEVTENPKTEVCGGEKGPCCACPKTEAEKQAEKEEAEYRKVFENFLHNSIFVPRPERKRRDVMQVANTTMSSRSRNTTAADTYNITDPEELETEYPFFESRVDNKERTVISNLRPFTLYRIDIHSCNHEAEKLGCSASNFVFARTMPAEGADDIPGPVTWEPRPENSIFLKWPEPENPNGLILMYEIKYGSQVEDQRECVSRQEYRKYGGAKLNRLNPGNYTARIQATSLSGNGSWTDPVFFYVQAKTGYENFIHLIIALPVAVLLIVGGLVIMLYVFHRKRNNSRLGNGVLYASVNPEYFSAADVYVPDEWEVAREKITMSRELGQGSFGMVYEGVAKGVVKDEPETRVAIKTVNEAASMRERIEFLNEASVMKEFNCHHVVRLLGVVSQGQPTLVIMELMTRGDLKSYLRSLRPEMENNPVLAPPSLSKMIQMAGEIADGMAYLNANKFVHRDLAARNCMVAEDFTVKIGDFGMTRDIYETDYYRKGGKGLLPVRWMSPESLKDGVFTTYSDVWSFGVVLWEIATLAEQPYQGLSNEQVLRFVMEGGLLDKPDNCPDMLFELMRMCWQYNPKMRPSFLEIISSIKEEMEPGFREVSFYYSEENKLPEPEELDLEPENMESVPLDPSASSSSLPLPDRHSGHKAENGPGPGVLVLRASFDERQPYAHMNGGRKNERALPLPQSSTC

| Compound | IC50 [nM] |
| --- | --- |
| N#CC(=Cc1ccc(O)c(O)c1)C(=O)c1ccc2[nH]c(=O)oc2c1 (single isomer, unassigned) [GB16-11] | 200 |
| N#C/C(=C\c1ccc(O)c(O)c1)C(=O)c1ccc(O)c(O)c1 [AG 538, reference compound] | 60 |
| N#C/C(=C\c1ccc2oc(=O)[nH]c2c1)C(=O)c1ccc(O)c(O)c1 [AGL 2263] | 70 |
| N#C/C(=C\c1ccc2oc(=O)[nH]c2c1)C(=O)c1ccc2[nH]c(=O)oc2c1 [GB 17] | 12000 |

The next lines start with the values.

| IC50 [nM] | Compound |
| --- | --- |
| 1200 | N#CC(=Cc1ccc(O)c(O)c1)C(=O)c1ccc2[nH]c(=O)oc2c1 (single isomer, unassigned) [GB 16-10] |
| 4200 | N#C/C(=C\c1ccc2[nH]c(=O)oc2c1)C(=O)c1ccc2[nH]c(=O)oc2c1 [GB18] |
